Starred links: 1 amine or outer side, 2 acyl side, 3 side chain; linkers in the order of their positions; H or OH if unused. Non-standard residues stand in square brackets, D forms with d. Residues, ends and D or L forms follow the SMILES beside them. Groups on a side chain read outwards from the residue. *: point of attachment. dNMe1Nal = CN[C@H](Cc1cccc2ccccc12)C(=O)O; dPhe(4-Cl) = N[C@H](Cc1ccc(Cl)cc1)C(=O)O; d1Nal = N[C@H](Cc1cccc2ccccc12)C(=O)O; d2Nal = N[C@H](Cc1ccc2ccccc2c1)C(=O)O; dLys(iPr) = CC(C)NCCCC[C@@H](N)C(=O)O; d(hCit) = NC(=O)NCCCC[C@@H](N)C(=O)O; Lys(iPr) = CC(C)NCCCC[C@H](N)C(=O)O; NMeY = CN[C@@H](Cc1ccc(O)cc1)C(=O)O; dBta = N[C@H](Cc1csc2ccccc12)C(=O)O; Piperazinyl(4-Me) = CN1CCN(*)CC1; d3Pal = N[C@H](Cc1cccnc1)C(=O)O; Cha = N[C@@H](CC1CCCCC1)C(=O)O; d2Thi = N[C@H](Cc1cccs1)C(=O)O; NMeL = CN[C@@H](CC(C)C)C(=O)O; Nicotinoyl = O=C(c1cccnc1)*; NMeS = CN[C@@H](CO)C(=O)O; CO = O=C([*:1])[*:2]; Sar = CNCC(=O)O; For = O=C*
Target: T1, LHRH receptors (Rattus norvegicus, UniProt P30969)
T1 sequence (P30969 1-327): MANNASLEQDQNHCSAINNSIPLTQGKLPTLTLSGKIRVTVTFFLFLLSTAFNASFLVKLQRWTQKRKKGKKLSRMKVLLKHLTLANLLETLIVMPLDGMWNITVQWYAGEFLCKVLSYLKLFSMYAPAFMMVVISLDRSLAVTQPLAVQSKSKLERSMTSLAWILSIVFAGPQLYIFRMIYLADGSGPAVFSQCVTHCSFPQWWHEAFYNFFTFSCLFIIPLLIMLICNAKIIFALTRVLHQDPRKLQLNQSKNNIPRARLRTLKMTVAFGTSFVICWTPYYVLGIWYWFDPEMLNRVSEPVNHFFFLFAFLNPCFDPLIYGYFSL
Assay: Radioligand receptor binding assay, rat pituitary membranes
Details: radioiodinated [D-Leu6-des Gly10]-LHRH ethyl amide 50 pM, 2 hours at 4° C., read-out: Receptor Binding pkI (converted)
Procedure: The radioligand (50 pM), receptors, and compounds to be tested are coincubated for 2 hours at 4° C. Bound ligand is separated from free ligand via centrifugation and aspiration.

In order of rising Ki:
1. CC(=O)N[C@H](Cc1ccc(Cl)cc1)C(=O)N[C@H](Cc1ccc(Cl)cc1)C(=O)N[C@H](Cc1cccs1)C(=O)N[C@@H](CO)C(=O)N[C@@H](Cc1ccc(O)cc1)C(=O)N[C@H](CCCCN)C(=O)N[C@@H](CC(C)C)C(=O)N[C@@H](CCCNC(=N)N)C(=O)N1CCC[C@H]1C(=O)N(C)CC(N)=O [Ex. 58, N-Ac-D-4-Cl-Phe-D-4-Cl-Phe-D-2-Thia-Ser-Tyr-D-Lys-Leu-Arg-Pro-SarNH2] (Ac-[dPhe(4-Cl)][dPhe(4-Cl)][d2Thi]SY[dK]LRP[Sar]-NH2)  0.00871 nM
2. CC(=O)N(C)CC(=O)N[C@H](Cc1ccc(Cl)cc1)C(=O)N[C@H](Cc1csc2ccccc12)C(=O)N[C@@H](CO)C(=O)N(C)[C@@H](Cc1ccc(O)cc1)C(=O)N[C@H](CCCCNC(=O)c1cccnc1)C(=O)N[C@@H](CC(C)C)C(=O)N[C@@H](CCCCNC(C)C)C(=O)N1CCC[C@H]1C(=O)N[C@H](C)C(N)=O [Ex. 64, N-Ac-Sar-D-4-Cl-Phe-D-3-Bal-Ser-N-Me-Tyr-D-Lys(N-epsilon-nicotinyl)-Leu-Lys(N-epsilon-isopropyl)-Pro-D-Ala-NH2] (Ac-[Sar][dPhe(4-Cl)][dBta]S[NMeY][dK](Nicotinoyl)L[Lys(iPr)]P[dA]-NH2)  0.0102 nM
3. CC(=O)N[C@H](Cc1ccc2ccccc2c1)C(=O)N[C@H](Cc1ccc(Cl)cc1)C(=O)N[C@H](Cc1cccnc1)C(=O)N[C@@H](CO)C(=O)N(C)[C@@H](Cc1ccc(O)cc1)C(=O)N[C@H](CCCCNC(=O)N1CCN(C)CC1)C(=O)N[C@@H](CC(C)C)C(=O)N[C@@H](CCCCNC(C)C)C(=O)N1CCC[C@H]1C(=O)N[C@H](C)C(N)=O [Ex. 70, N-Ac-D-2--Nal-D-4-Cl-Phe-D-3-Pal-Ser-N-Me-Tyr-D-Lys(N-epsilon-CO-NMePip)-Leu-Lys(N-epsilon-isopropyl)-Pro-D-AlaNH2] (Ac-[d2Nal][dPhe(4-Cl)][d3Pal]S[NMeY][dK]([CO-Piperazinyl(4-Me)])L[Lys(iPr)]P[dA]-NH2)  0.012 nM
4. CC(=O)N[C@H](Cc1ccc2ccccc2c1)C(=O)N[C@H](Cc1ccc(Cl)cc1)C(=O)N[C@H](Cc1cccnc1)C(=O)N[C@@H](CO)C(=O)N(C)[C@@H](Cc1ccc(O)cc1)C(=O)N[C@H](CCCCNC(=O)c1cccnc1)C(=O)N[C@@H](CC1CCCCC1)C(=O)N[C@@H](CCCNC(=N)N)C(=O)N1CCC[C@H]1C(=O)N[C@H](C)C(N)=O [Ex. 66, N-Ac-D-2-Nal-D-4-Cl-Phe-D-3-Pal-Ser-N-Me-Tyr-D-Lys(N-epsilon-nicotinyl)-Cha-Arg-Pro-D-AlaNH2] (Ac-[d2Nal][dPhe(4-Cl)][d3Pal]S[NMeY][dK](Nicotinoyl)[Cha]RP[dA]-NH2)  0.0141 nM
5. CC(=O)N[C@H](Cc1ccc(Cl)cc1)C(=O)N[C@H](Cc1ccc(Cl)cc1)C(=O)N[C@H](Cc1cn(C=O)c2ccccc12)C(=O)N[C@@H](CO)C(=O)N(C)[C@@H](Cc1ccc(O)cc1)C(=O)N[C@H](CCCCN)C(=O)N[C@@H](CC(C)C)C(=O)N[C@@H](CCCNC(=N)N)C(=O)N1CCC[C@H]1C(=O)N[C@H](C)C(N)=O [Ex. 55, N-Ac-D-4-Cl-Phe-D-4-Cl-Phe-D-Trp(formyl)-Ser-N-Me-Tyr-D-Lys-Leu-Arg-Pro-D-AlaNH2] (Ac-[dPhe(4-Cl)][dPhe(4-Cl)][dW](For)S[NMeY][dK]LRP[dA]-NH2)  0.0219 nM
6. CC(=O)N[C@H](Cc1ccc(Cl)cc1)C(=O)N[C@H](Cc1ccc(Cl)cc1)C(=O)N[C@H](Cc1csc2ccccc12)C(=O)N[C@@H](CO)C(=O)N(C)[C@@H](Cc1ccc(O)cc1)C(=O)N[C@H](CCCCNC(C)C)C(=O)N[C@@H](CC(C)C)C(=O)N[C@@H](CCCNC(=N)N)C(=O)N1CCC[C@H]1C(=O)N[C@H](C)C(N)=O [Ex. 60, N-Ac-D-4-Cl-Phe-D-4-Cl-Phe-D-3-Bal-Ser-N-Tyr-D-Lys(N-epsilon-isopropyl)-Leu-Arg-Pro-D-AlaNH2] (Ac-[dPhe(4-Cl)][dPhe(4-Cl)][dBta]S[NMeY][dLys(iPr)]LRP[dA]-NH2)  0.0229 nM
7. CC(=O)N[C@H](Cc1ccc(Cl)cc1)C(=O)N[C@H](Cc1ccc(Cl)cc1)C(=O)N[C@H](Cc1csc2ccccc12)C(=O)N[C@@H](CO)C(=O)N(C)[C@@H](Cc1ccc(O)cc1)C(=O)N[C@H](CCCCN)C(=O)N[C@@H](CC(C)C)C(=O)N[C@@H](CCCN=C(N)N)C(=O)N1CCC[C@H]1C(=O)N[C@H](C)C(N)=O [Ex. 54, N-Ac-D-4-Cl-Phe-D-4-Cl-Phe-D-3-Bal-Ser-N-Me-Tyr-D-Lys-Leu-Arg-Pro-D-AlaNH2] (Ac-[dPhe(4-Cl)][dPhe(4-Cl)][dBta]S[NMeY][dK]LRP[dA]-NH2)  0.0339 nM
8. CC(=O)N[C@H](Cc1ccc2ccccc2c1)C(=O)N[C@H](Cc1ccc(Cl)cc1)C(=O)N[C@H](Cc1cccnc1)C(=O)N[C@@H](CO)C(=O)N(C)[C@@H](Cc1ccc(O)cc1)C(=O)N[C@H](Cc1cccnc1)C(=O)N[C@@H](CC(C)C)C(=O)N[C@@H](CCCCNC(C)C)C(=O)N1CCC[C@H]1C(=O)N[C@H](C)C(N)=O [Ex. 61, N-Ac-D-2-Nal-D-4-Cl-Phe-D-3-Pal-Ser-N-Me-Tyr-D-3-Pal-Leu-Lys(N-epsilon-isopropyl)-Pro-D-AlaNH2] (Ac-[d2Nal][dPhe(4-Cl)][d3Pal]S[NMeY][d3Pal]L[Lys(iPr)]P[dA]-NH2)  0.049 nM
9. CC(=O)N[C@H](Cc1ccc(Cl)cc1)C(=O)N[C@H](Cc1ccc(Cl)cc1)C(=O)N[C@H](Cc1cccc2ccccc12)C(=O)N[C@@H](CO)C(=O)N(C)[C@@H](Cc1ccc(O)cc1)C(=O)N[C@H](CCCCNC(N)=O)C(=O)N[C@@H](CC(C)C)C(=O)N[C@@H](CCCNC(=N)N)C(=O)N1CCC[C@H]1C(=O)N[C@H](C)C(N)=O [Ex. 59, N-Ac-D-4-Cl-Phe-D-4-Cl-Phe-D-1-Nal-Ser-N-Me-Tyr-D-H-Cit-Leu-Arg-Pro-D-AlaNH2] (Ac-[dPhe(4-Cl)][dPhe(4-Cl)][d1Nal]S[NMeY][d(hCit)]LRP[dA]-NH2)  0.0977 nM
10. CC(=O)N[C@H](Cc1ccc(Cl)cc1)C(=O)N[C@H](Cc1ccc(Cl)cc1)C(=O)N[C@H](Cc1cccs1)C(=O)N[C@@H](CO)C(=O)N(C)[C@@H](Cc1ccc(O)cc1)C(=O)N[C@H](CCCCNC(=O)c1cccnc1)C(=O)N(C)[C@@H](CC(C)C)C(=O)N[C@@H](CCCNC(=N)N)C(=O)N1CCC[C@H]1C(=O)N[C@H](C)C(N)=O [Ex. 68, N-Ac-D-4-Cl-Phe-D-4-Cl-Phe-D-2-Thia-Ser-N-Me-Tyr-D-Lys(N-epsilon-nicotinyl)-N-Me-Leu-Arg-Pro-D-Ala-NH2] (Ac-[dPhe(4-Cl)][dPhe(4-Cl)][d2Thi]S[NMeY][dK](Nicotinoyl)[NMeL]RP[dA]-NH2)  0.12 nM
11. CC(=O)N[C@H](Cc1ccc(Cl)cc1)C(=O)N[C@H](Cc1ccc(Cl)cc1)C(=O)N[C@H](Cc1ccc2ccccc2c1)C(=O)N[C@@H](CO)C(=O)N(C)[C@@H](Cc1ccc(O)cc1)C(=O)N[C@H](CCCCNC(=O)c1cccnc1)C(=O)N(C)[C@@H](CC(C)C)C(=O)N[C@@H](CCCNC(=N)N)C(=O)N1CCC[C@H]1C(=O)N[C@H](C)C(N)=O [Ex. 57, N-Ac-D-4-Cl-Phe-D-4-Cl-Phe-D-2-Nal-Ser-N-Me-Tyr-D-Lys(N-epsilon-nicotinyl)- N-Me-Leu-Arg-Pro-D-AlaNH2] (Ac-[dPhe(4-Cl)][dPhe(4-Cl)][d2Nal]S[NMeY][dK](Nicotinoyl)[NMeL]RP[dA]-NH2)  0.372 nM
12. CC(=O)N[C@H](Cc1ccc2ccccc2c1)C(=O)N[C@H](Cc1ccc(Cl)cc1)C(=O)N[C@H](Cc1cccnc1)C(=O)N(C)[C@@H](CO)C(=O)N[C@@H](CCCCNC(=O)c1cccnc1)C(=O)N[C@H](CCCCNC(=O)c1cccnc1)C(=O)N[C@@H](CC(C)C)C(=O)N[C@@H](CCCCNC(C)C)C(=O)N1CCC[C@H]1C(=O)N[C@H](C)C(N)=O [Ex. 35, N-Ac-D-2-Nal-D-4-Cl-Phe-D-3-Pal-N-Me-Ser-Lys-(N-epsilon-nicotinyl)-D-Lys-(N-epsilon-nicotinyl)-Leu-Lys-(N-epsilon-isopropyl)-Pro-D-AlaNH2] (Ac-[d2Nal][dPhe(4-Cl)][d3Pal][NMeS]K(Nicotinoyl)[dK](Nicotinoyl)L[Lys(iPr)]P[dA]-NH2)  0.479 nM
13. CC(=O)N[C@H](Cc1ccc(Cl)cc1)C(=O)N[C@H](Cc1ccc(Cl)cc1)C(=O)N(C)[C@H](Cc1cccc2ccccc12)C(=O)N[C@@H](CO)C(=O)N(C)[C@@H](Cc1ccc(O)cc1)C(=O)N[C@H](CCCCN)C(=O)N[C@@H](CC(C)C)C(=O)N[C@@H](CCCNC(=N)N)C(=O)N1CCC[C@H]1C(=O)N[C@H](C)C(N)=O [Ex. 56, N-Ac-D-4-Cl-Phe-D-4-Cl-Phe-N-Me-D-1-Nal-Ser-N-Me-Tyr-D-Lys-Leu-Arg-Pro-D-AlaNH2] (Ac-[dPhe(4-Cl)][dPhe(4-Cl)][dNMe1Nal]S[NMeY][dK]LRP[dA]-NH2)  0.676 nM

Tested on: LH concentration in the blood
Assay: In vivo LH inhibition in male castrate rats
Design: species or system rat
Details: AUC of log(LHt/LHi) over 24 hours, 30 ug/kg subcutaneous bolus
Procedure: The compound to be tested is administered at 30 μg/kg subcutaneously by bolus injection to male castrate rats and blood samples are collected periodically over 24 hours. The AUC (area under the curve) of the LH supression data as a function of time is calculated using the formula log (LHt /LHi) wherein LHt is the LH concentration in the blood at time t and LHi is the initial baseline value for the concentration of LH in the blood. The AUC values are negative numbers.

In order of falling “AUC (24 hr. after 30 ug/kg)” value:
1. CC(=O)N[C@H](Cc1ccc2ccccc2c1)C(=O)N[C@H](Cc1ccc(Cl)cc1)C(=O)N[C@H](Cc1cccnc1)C(=O)N(C)[C@@H](CO)C(=O)N[C@@H](CCCCNC(=O)c1cccnc1)C(=O)N[C@H](CCCCNC(=O)c1cccnc1)C(=O)N[C@@H](CC(C)C)C(=O)N[C@@H](CCCCNC(C)C)C(=O)N1CCC[C@H]1C(=O)N[C@H](C)C(N)=O [Ex. 35, N-Ac-D-2-Nal-D-4-Cl-Phe-D-3-Pal-N-Me-Ser-Lys-(N-epsilon-nicotinyl)-D-Lys-(N-epsilon-nicotinyl)-Leu-Lys-(N-epsilon-isopropyl)-Pro-D-AlaNH2] (Ac-[d2Nal][dPhe(4-Cl)][d3Pal][NMeS]K(Nicotinoyl)[dK](Nicotinoyl)L[Lys(iPr)]P[dA]-NH2)  -510
2. CC(=O)N[C@H](Cc1ccc(Cl)cc1)C(=O)N[C@H](Cc1ccc(Cl)cc1)C(=O)N[C@H](Cc1cccc2ccccc12)C(=O)N[C@@H](CO)C(=O)N(C)[C@@H](Cc1ccc(O)cc1)C(=O)N[C@H](CCCCN)C(=O)N[C@@H](CC(C)C)C(=O)N[C@@H](CCCNC(=N)N)C(=O)N1CCC[C@H]1C(=O)N[C@H](C)C(N)=O [Ex. 46, N-Ac-D-4-Cl-Phe-D-4-Cl-Phe-D-1-Nal-Ser-N-Me-Tyr-D-Lys-Leu-Arg-Pro-D-AlaNH2] (Ac-[dPhe(4-Cl)][dPhe(4-Cl)][d1Nal]S[NMeY][dK]LRP[dA]-NH2)  -1513

— patent publication US5110904A (Abbott Laboratories, priority 1990, dated 1992)
